{"source": "patent US4547517A", "about": "“Microbicidal N-sulphenylated hydantoins” (Bayer Aktiengesellschaft, priority 1983, dated 1985)", "key": {"Fusarium nivale": {"test_system": "Fusarium nivale", "assay": "Fusarium nivale test (rye)/seed treatment (Example 30)", "assay_type": "in vivo, Fusarium nivale (on rye)", "conditions": "seed treatment, 500 mg/kg of seed, about 3 weeks after sowing, not dressed 12.8", "experimental": "The active compounds are used as dry dressings. These are prepared by extending the particular active compound with a ground mineral to give a finely pulverulent mixture, which ensures uniform distribution on the seed surface. To apply the dressing, the infected seed is shaken with the dressing in a closed glass flask for 3 minutes. 2 batches of 100 grains of the rye are sown 1 cm deep in standard soil and are cultivated in a greenhouse at a temperature of about 10° C. and a relative atmospheric humidity of about 95%, in seedboxes which are exposed to light for 15 hours daily. About 3 weeks after sowing, the plants are evaluated for symptoms of snow mould."}, "[1]": {"test_system": "Erysiphe graminis f.sp. hordei", "assay": "Erysiphe test (barley)/protective (Example 29)", "assay_type": "in vivo, Erysiphe graminis f.sp. hordei (on barley)", "conditions": "protective, active compound concentration in spray liquor 0.025 % by weight, 7 days after inoculation", "experimental": "Solvent: 100 parts by weight of dimethylformamide Emulsifier: 0.25 part by weight of alkylaryl polyglycol ether To produce a suitable preparation of active compound, 1 part by weight of active compound is mixed with the stated amounts of solvent and emulsifier, and the concentrate is diluted with water to the desired concentration. To test for protective activity, young plants are sprayed with the preparation of active compound until dew-moist. After the spray coating has dried on, the plants are dusted with spores of Erysiphe graminis f.sp. hordei. The plants are placed in a greenhouse at a temperature of about 20° C. and a relative atmospheric humidity of about 80%, in order to promote the development of powdery mildew pustules. Evaluation is carried out 7 days after the inoculation."}, "Staphylococcus aureus": {"test_system": "Staphylococcus aureus", "assay": "Action against bacteria, MIC in bouillon agar (Example 27)", "assay_type": "cell-based", "conditions": "336 h, 28° C., 2 weeks", "experimental": "The active compounds listed in Table II are added in concentrations of 1 to 5000 ppm to an agar containing bouillon as the nutrient medium. The nutrient medium is then infected with Staphylococcus aureus and the infected medium is kept at 28° C. and 60 to 70% relative atmospheric humidity for 2 weeks. The MIC is the lowest concentration of active compound at which no growth at all of the species of microbe used takes place."}, "Alternaria tenuis": {"test_system": "Alternaria tenuis", "assay": "MIC against fungi in beer wort/peptone agar (Example 26)", "assay_type": "cell-based", "conditions": "Alternaria alternata, 336 h, 28° C., 2 weeks", "experimental": "(§1) Active compounds according to the invention are added in concentration of 0.1 mg/liter to 5,000 mg/liter to an agar prepared from beer wort and peptone. After storage at 28° C. and 60 to 70% relative atmospheric humidity for 2 weeks, the MIC is determined. The MIC is the lowest concentration of active compound at which no growth at all of the species of microbe used takes place; it is shown in the Table which follows."}, "Penicillium glaucum": {"test_system": "Penicillium glaucum", "assay": "MIC against fungi in beer wort/peptone agar (Example 26)", "assay_type": "cell-based", "conditions": "336 h, 28° C., 2 weeks", "experimental": "as §1"}, "Aspergillus niger": {"test_system": "Aspergillus niger", "assay": "MIC against fungi in beer wort/peptone agar (Example 26)", "assay_type": "cell-based", "conditions": "336 h, 28° C., 2 weeks", "experimental": "as §1"}, "Aureobasidium pullulans": {"test_system": "Aureobasidium pullulans", "assay": "MIC against fungi in beer wort/peptone agar (Example 26)", "assay_type": "cell-based", "conditions": "336 h, 28° C., 2 weeks", "experimental": "as §1"}, "Coniophora cerebella": {"test_system": "Coniophora cerebella", "assay": "MIC against fungi in beer wort/peptone agar (Example 26)", "assay_type": "cell-based", "conditions": "336 h, 28° C., 2 weeks", "experimental": "as §1"}, "Lentinus tigrinus": {"test_system": "Lentinus tigrinus", "assay": "MIC against fungi in beer wort/peptone agar (Example 26)", "assay_type": "cell-based", "conditions": "336 h, 28° C., 2 weeks", "experimental": "as §1"}, "Polyporus versicolor": {"test_system": "Polyporus versicolor", "assay": "MIC against fungi in beer wort/peptone agar (Example 26)", "assay_type": "cell-based", "conditions": "Trametes versicolor, 336 h, 28° C., 2 weeks", "experimental": "as §1"}, "Sclerophoma pityophila": {"test_system": "Sclerophoma pityophila", "assay": "MIC against fungi in beer wort/peptone agar (Example 26)", "assay_type": "cell-based", "conditions": "Sydowia polyspora, 336 h, 28° C., 2 weeks", "experimental": "as §1"}, "Chaetomium globosum": {"test_system": "Chaetomium globosum", "assay": "MIC against fungi in beer wort/peptone agar (Example 26)", "assay_type": "cell-based", "conditions": "336 h, 28° C., 2 weeks", "experimental": "as §1"}, "slime organisms": {"test_system": "slime organisms", "assay": "Action against slime organisms, MIC in Allens nutrient solution (Example 28)", "assay_type": "cell-based", "conditions": "504 h, room temperature, 3 weeks", "experimental": "The compounds according to Examples 3, 5 and 10 are each used, dissolved in a little acetone, in concentrations of 0.1 to 100 mg/liter in Allens nutrient solution (Arch. Mikrobiol. 17, 34-53 (1952)), which contains, in 4 liters of sterile water, 0.2 g of ammonium chloride, 4.0 g of sodium nitrate, 1.0 g of dipotassium hydrogen phosphate, 0.2 g of calcium chloride, 2.05 g of magnesium sulphate, 0.02 g of iron chloride and 1% of caprolactam. Shortly beforehand, the nutrient solution is infected with slime organisms (about 10^6 germs/ml), which have been isolated from spinning water circulations used in the manufacture of polyamide. Nutrient solutions which contain the minimum inhibitory concentration (MIC) or higher concentrations of active compound are still completely clear after culture at room temperature for 3 weeks, that is to say the marked multiplication of the microbes and formation of slime noticeable after 3 to 4 days in nutrient solutions containing no active compound are absent."}, "Pyricularia oryzae": {"test_system": "Pyricularia oryzae", "assay_type": "in vivo, Pyricularia oryzae (on rice)", "conditions": "rice, protective; active compound concentration 0.025 %; 4 days after inoculation"}}, "data": [{"compound": "CN1C(=O)CN(SC(F)(Cl)Cl)C1=O", "values": [{"measurement": "Diseased plants in % of the total plants emerged", "setting": "Fusarium nivale", "value": "0.0 % of the total plants emerged"}]}, {"compound": "O=C1C2CC=CCC2C(=O)N1SC(Cl)(Cl)Cl", "note": "(stereo not drawn) [Captan, reference compound]", "values": [{"measurement": "Diseased plants in % of the total plants emerged", "setting": "Fusarium nivale", "value": "5.4 % of the total plants emerged"}, {"measurement": "Disease infestation in % of the untreated control", "setting": "[1]", "value": "100 % of the untreated control"}]}, {"compound": "CN1C(=O)N(SC(F)(Cl)Cl)C(C)(C)C1=O", "note": "[Example 3]", "values": [{"measurement": "MIC", "setting": "Staphylococcus aureus", "value": 50, "unit": "µg/mL"}, {"measurement": "MIC", "setting": "Alternaria tenuis", "value": 1.5, "unit": "µg/mL"}, {"measurement": "MIC", "setting": "Penicillium glaucum", "value": 50, "unit": "µg/mL"}, {"measurement": "MIC", "setting": "Aspergillus niger", "value": 10, "unit": "µg/mL"}, {"measurement": "MIC", "setting": "Aureobasidium pullulans", "value": 1, "unit": "µg/mL"}, {"measurement": "MIC", "setting": "Coniophora cerebella", "value": 1, "unit": "µg/mL"}, {"measurement": "MIC", "setting": "Lentinus tigrinus", "value": 1, "unit": "µg/mL"}, {"measurement": "MIC", "setting": "Polyporus versicolor", "value": 7.5, "unit": "µg/mL"}, {"measurement": "MIC", "setting": "Sclerophoma pityophila", "value": 5, "unit": "µg/mL"}, {"measurement": "MIC", "setting": "Chaetomium globosum", "value": 1.5, "unit": "µg/mL"}, {"measurement": "MIC", "setting": "slime organisms", "value": 3, "unit": "µg/mL"}]}, {"compound": "CCCCN1C(=O)CN(SC(F)(Cl)Cl)C1=O", "note": "[Example 5]", "values": [{"measurement": "MIC", "setting": "Staphylococcus aureus", "value": 100, "unit": "µg/mL"}, {"measurement": "MIC", "setting": "Alternaria tenuis", "value": 2, "unit": "µg/mL"}, {"measurement": "MIC", "setting": "Penicillium glaucum", "value": 100, "unit": "µg/mL"}, {"measurement": "MIC", "setting": "Aspergillus niger", "value": 50, "unit": "µg/mL"}, {"measurement": "MIC", "setting": "Aureobasidium pullulans", "value": 2, "unit": "µg/mL"}, {"measurement": "MIC", "setting": "Coniophora cerebella", "value": 0.75, "unit": "µg/mL"}, {"measurement": "MIC", "setting": "Lentinus tigrinus", "value": 0.75, "unit": "µg/mL"}, {"measurement": "MIC", "setting": "Polyporus versicolor", "value": 15, "unit": "µg/mL"}, {"measurement": "MIC", "setting": "Sclerophoma pityophila", "value": 5, "unit": "µg/mL"}, {"measurement": "MIC", "setting": "Chaetomium globosum", "value": 3.5, "unit": "µg/mL"}, {"measurement": "MIC", "setting": "slime organisms", "value": 5, "unit": "µg/mL"}]}, {"compound": "CC1(C)C(=O)N(C2CCCCC2)C(=O)N1SC(F)(Cl)Cl", "note": "[Example 10]", "values": [{"measurement": "MIC", "setting": "Staphylococcus aureus", "value": 50, "unit": "µg/mL"}, {"measurement": "MIC", "setting": "Alternaria tenuis", "value": 3.5, "unit": "µg/mL"}, {"measurement": "MIC", "setting": "Penicillium glaucum", "value": 75, "unit": "µg/mL"}, {"measurement": "MIC", "setting": "Aspergillus niger", "value": 20, "unit": "µg/mL"}, {"measurement": "MIC", "setting": "Aureobasidium pullulans", "value": 3.5, "unit": "µg/mL"}, {"measurement": "MIC", "setting": "Coniophora cerebella", "value": 0.75, "unit": "µg/mL"}, {"measurement": "MIC", "setting": "Lentinus tigrinus", "value": 0.75, "unit": "µg/mL"}, {"measurement": "MIC", "setting": "Polyporus versicolor", "value": 15, "unit": "µg/mL"}, {"measurement": "MIC", "setting": "Sclerophoma pityophila", "value": 5, "unit": "µg/mL"}, {"measurement": "MIC", "setting": "Chaetomium globosum", "value": 1.5, "unit": "µg/mL"}, {"measurement": "MIC", "setting": "slime organisms", "value": 100, "unit": "µg/mL"}]}, {"compound": "O=C1CN(SC(F)(Cl)Cl)C(=O)N1C1CCCCC1", "note": "[drawing 16]", "values": [{"measurement": "Disease infestation in % of the untreated control", "setting": "[1]", "value": "0.0 % of the untreated control"}]}, {"compound": "O=C1C2CC=CCC2C(=O)N1SC(Cl)(Cl)Cl", "note": "(stereo not drawn) [drawing 19, reference compound]", "values": [{"measurement": "Disease infestation in % of the untreated control", "setting": "Pyricularia oryzae", "value": "50 % of the untreated control"}]}, {"compound": "O=C1CN(SC(F)(Cl)Cl)C(=O)N1C1CCCCC1", "note": "[drawing 20]", "values": [{"measurement": "Disease infestation in % of the untreated control", "setting": "Pyricularia oryzae", "value": "13 % of the untreated control"}]}]}
